Results taken from patent US9682928B2 (NeuroPro Therapeutics, Inc., priority 2009, dated 2017).
Where “and” joins values, the source holds several entries; their conditions need not be identical. Identical values can stand only once. Entries after “also recorded” stand apart in the source; their conditions may differ. Like-named read-outs stand apart in the source and are kept apart here.

Columns and labels:
primate = assay: Acute primate seizure models; settings: in vivo
Source text: FIG. 13 depicts epileptiform spikes and bursts generated using software for the automatic quantification epileptiform activity. FIG. 13A depicts after-discharge activity that was elicited by 4 seconds of electrical stimulation to primate sensory cortex. The software developed by Haglund and Hochman (2007) finds the envelope around a burst of spikes and calculates the duration of the burst, the number of spikes within the burst, and the average spike amplitude of all spikes comprising the burst.
FIG. 13B depicts a typical spike generated by an acute bicuculline focus in primate motor cortex. The bicuculline model generates epileptiform activity that is similar to spontaneous interictal spiking in human subjects. Analysis of the data by the software identifies the time of occurrence of each spike and its peak-to-peak amplitude. This software can automatically process entire data sets consisting of hours of recorded data from multiple traces and generate an output of the data. Statistical analysis of data sets from multiple experiments can then be used to analyze the effects of various treatments (e.g., compounds that suppress epliptiform activity). See Haglund and Hochman (2007) “Imaging of Intrinsic Optical Signals in Primate Cortex during Epileptiform Activity.” Epilepsia 48(Suppl. 4): 65-74; See also Haglund and Hochman (Feb. 23, 2005) J. Neurophysiol. 94: 907-918.

[1] = Blood levels in rat following IP administration; assay type: in vivo; settings: for Concentration of NTP-2000 (bumetanide) in rat blood: after NTP-2024 100 mg/kg IP
Sprague-Dawley rats = assay: Kainic acid induced seizures in rats; assay type: in vivo, rat; set-up: key to Seizures Severity Mean ± SD (grade 0 to IV): seizure grade 0 = no response to IV = status epilepticus; settings: for change in vivo at 20 µmol/kg / change in vivo at 100 mg/kg: Rattus norvegicus, 2 h; for change in vivo at 100 mg/kg: ip; for Reduction in seizure score / severity: bumetanide 100 mg/kg i.p. (274 umoles/kg); for Reduction in seizure severity / seizure score / Reduction in seizures / seizure activity: kainic acid 15 mg/kg, rat, 20 μmoles/kg (bumetanide 7.3 mg/kg i.p.)
Description: Formulation of kainic acid was performed by NTS as a stock solution by reconstituting kainic acid with (100%) saline that was stored at 4° C. Vehicle control received saline solution. […] The research investigators were blinded to the treatment groups.
Solutions were prepared fresh daily just prior to use; dosing of all 10 rats with any given compound occurred on a single day after preparing the dosing solution. […] Unused remaining dosing solutions were stored frozen.
Animals were maintained in a temperature- and light-controlled environment in accord with the principles and procedures of the National Institutes of Health Guidelines for Care and Use of Laboratory Animals. Seizures were induced in adult, male Sprague-Dawley rats (260-300 g) by injection of KA (15 mg/kg, i.p.). In addition, animals were injected with test compounds following kainic acid to determine the effects on protection from epilepsy. Animals were monitored behaviorally for seizures for 2 hours after injection.
Seizure activity was initially characterized as either yes (1) or no (0) within a 2 hour period following injection of KA. A seizure severity grade was assigned based on the maximal response achieved on a scale from 0 to IV as follows: 0, no response; I, single limb clonus and scratching; II, multiple limb clonus and staggering gait; […], limb clonus, tonic extension of limbs and falling; IV, continuous grade III seizures for longer than 30 min (status epilepticus).
The results were expressed as the mean±standard deviation (SD). The significance of difference in the epileptic data was analyzed using a one-way analysis of variance (ANOVA) followed by Fisher's post hoc test. Repeated-measures ANOVA were computed on the monitoring data and the significance of the difference among groups were evaluated by Fisher's post hoc test.
All groups were subjected to kainic acid.
The induction of seizures in rats with kainic acid was determined as either yes seizures (1) or no seizures (0).

Male CD-1 mice = assay: Chung (SNL) neuropathic pain study in mice; assay type: in vivo, mouse; settings: for Other overt toxicity: in vivo, ip; for Reversal of tactile hypersensitivity: mice, i.p., SNL
Source text: Male CD-1 mice (25-35 g, Charles River) were used for all studies. Mice were housed in groups of five in Plexiglas chambers with food and water available ad libitum. All animals were maintained on a 12 hr light/dark cycle (lights on at 7:00 AM) in a temperature- and humidity-controlled animal colony. The health status of the animals used in this study was examined on arrival. Only animals in good health were acclimatized to laboratory conditions and used in the study. The acclimation period to the vivarium was a minimum of 7 days. All animal experiments were performed under an approved protocol in accordance with institutional guidelines and in accordance with the Guide for the Care and Use of Laboratory Animals as adopted and promulgated by the National Institutes of Health.
NTP has provided adequate amounts of NTP-2014 and NTP-2026 along with detailed instructions for preparing injection solutions. Gabapentin (Gallipot, St. Paul, Minn.) was dissolved in physiological saline. Injections were made using a 1-mL syringe with a 30-gauge needle at a volume of 10 ml/kg body weight. Animal body weights were measured prior to surgery and then on the morning of Day 7 (post-SNL testing). For i.p. drug administration, each mouse was firmly grasped by the nape of the neck and the tail was tucked between the last two fingers and palm of the technician's hand. The back of the mouse iwasarched slightly backwards exposing the abdominal region. The needle was inserted through the skin and abdominal musculature into the peritoneal cavity just off of the midline. Mice are immediately returned to the testing cage until behavioral testing.
NTP2026 (56, 100 and 180 mg/kg, i.p.); NTP 2014 (32, 56 and 100 mg/kg, i.p.); Gabapentin (100 mg/kg, i.p.); Vehicle Control (10% TPGS in benzoate buffer, i.p.).
SNL surgeries were performed based on the procedures described for rats (Kim and Chung, 1992) and modified for mice (Wang et al., 2001). Anesthesia was maintained with 0.5% halothane in O2 and body temperature was maintained using a heated water blanket. After surgical preparation of the mice, a 1-cm paraspinal incision was made at the level L4-S2. The L5 and L6 spinal nerves were exposed and tightly ligated using a 4-0 silk suture. The ligation was made distal to the dorsal root ganglion but before the fibers joined the sciatic nerve. The incisions were then closed, and animals are allowed to recover. […] Mechanical thresholds were determined by measuring the paw withdrawal threshold to probing with a series of calibrated von Frey filaments as described below.
Non-noxious sensory thresholds of the mice were determined by paw withdrawal […] to probing with a series of calibrated (0.02-2.34 gm on a logarithmic scale) von Frey filaments (“up and down” method) according to Chaplan et al. (1994) and analyzed using a Dixon (1980) nonparametric test. Results are expressed as the mean withdrawal thresholds. Baseline latencies/thresholds were determined prior to surgery, on the morning of Day 7, and then between 20-60 minutes post dosing with the test drugs. The post-drug time corresponds to the time of maximal activity for these compounds in the tail-flick assay.

in vivo = settings: rat
[2] = Solubility in dosing vehicle (0.2% HPMC in physiological saline); assay type: physicochemical; settings: NTP-2024: 180 mg/kg or 18 mg/ml; NTP-2026: 100 mg/kg or 10 mg/ml
[3] = KA 15 mg/kg i.p., 20 μmoles/kg IP
[4] = KA 15 mg/kg i.p., 20 μmoles/kg IP, 2 hours
[5] = group 11, bumetanide 100 mg/kg (274 umoles/kg)
[6] = 20 μmoles/kg IP, vs DMSO control

For `CCCCNc1cc(C(=O)O)cc(S(N)(=O)=O)c1Oc1ccccc1` [Bumetanide, reference compound], the “Suppression of epileptiform activity” value (primate) was “significantly more than furosemide”, the “Effect of inhibitor pre-treatment on exposures and half-life” value ([1]; rats) was “with inhibitor increased bumetanide exposures and half-life;” and the “Seizures Severity Mean ± SD (grade 0 to IV)” value (“Seizures Severity Mean ± SD” for short) (Sprague-Dawley rats; [3]) was 0.7000 ± 0.8233. The “Seizures Mean ± SD (1 = yes, 0 = no)” value (Sprague-Dawley rats; [4]) was 0.5000 ± 0.5270, the change in vivo at 20 µmol/kg (Sprague-Dawley rats; 20 μmoles/kg IP, vs DMSO control, read-out: Percent reduction in Seizures) was -44.4% and the change in vivo at 20 µmol/kg (Sprague-Dawley rats; 20 μmoles/kg IP, vs DMSO control, read-out: Percent reduction in Seizures Severity) was -70.8%. The change in vivo at 100 mg/kg (Sprague-Dawley rats; read-out: Percent reduction in Seizures) was -88.9%, the change in vivo at 100 mg/kg (Sprague-Dawley rats; read-out: Percent reduction in Seizures Severity) was -95.8% and the “Reduction in seizure score / severity” value (Sprague-Dawley rats) was “seizures (S); 96%”. The “Reduction in seizure score / severity” value (Sprague-Dawley rats; listed as bumetanide) was 95.8%, the Reduction in seizures (Sprague-Dawley rats; bumetanide 100 mg/kg i.p., listed as bumetanide) was 88.9% and the “Seizures Mean ± SD (1 = yes, 0 = no)” value (Sprague-Dawley rats; [5]) was 0.1000 ± 0.3162. The “Seizures Severity Mean ± SD” value (Sprague-Dawley rats; [5]) was 0.1000 ± 0.3162, the “Reduction in seizure severity / seizure score” value (Sprague-Dawley rats) was “seizures (NS); 71%” and the “Reduction in seizures / seizure activity” value (Sprague-Dawley rats) was 44% reduction in. The “Reduction in seizure severity / seizure score” value (Sprague-Dawley rats; listed as bumetanide) was 70.8%.

In the case of `CCCCN(CCCC)c1cc(C(=O)O)cc(S(N)(=O)=O)c1Oc1ccccc1` [NTP-2014, 3-Aminosulfonyl-5-N,N-dibutylamino-4-phenoxybenzoic acid], the Other overt toxicity (Male CD-1 mice; male, CD-1, mouse) is reported as “high dose group (180 mg/kg). No other”, the “Reversal of tactile hypersensitivity” value (Male CD-1 mice) is reported as “dose-dependent reversal of tactile hypersensitivity; also recorded: effective analgesic effects; also recorded: Dose-dependent, very significant” and the Other overt toxicity (Male CD-1 mice; mouse) is reported as “No other overt toxicity”. It also gave an NOAEL at 14 day (in vivo) of 500 mg/kg.

With `CCCCNc1cc(C(=O)NN2CCOCC2)cc(S(N)(=O)=O)c1Oc1ccccc1` [NTP-2024, N-Morpholinyl 3-Aminosulfonyl-5-N-butylamino-4-phenoxybenzamide] the “Suppression of epileptiform activity” value (primate) was “efficacious in suppressing epileptiform activity”, the “Solubility issues at the highest dose tested” value [2] was “Mild solubility issues” and the “Concentration of NTP-2024 in rat blood” value ([1]; NTP-2024 100 mg/kg IP, PBx pretreated, 15 m) was 3939.86 ng/mL and 4358.32 ng/mL and 6418.34 ng/mL. The “Concentration of NTP-2000 (bumetanide) in rat blood” value ([1]; PBx pretreated, 5 m) was 4.155 ng/mL and 3.804 ng/mL and 3.493 ng/mL, the “Concentration of NTP-2000 (bumetanide) in rat blood” value ([1]; PBx pretreated, 30 m) was 13.3456 ng/mL and 10.0076 ng/mL and 8.433 ng/mL and the “Concentration of NTP-2000 (bumetanide) in rat blood” value ([1]; PBx pretreated, 1 h) was 12.2513 ng/mL and 9.158 ng/mL and 8.065 ng/mL. For the same compound, the “Concentration of NTP-2000 (bumetanide) in rat blood” value ([1]; PBx pretreated, 2 h) was 15.0994 ng/mL and 8.16 ng/mL and 8.949 ng/mL, the “Degradation to bumetanide in the blood” value ([1]; i.p., rats) was “does not readily degrade to bumetanide” and the “Concentrations in blood and in brain tissue” value ([1]; rats pretreated with inhibitor) was “Rats pretreated with inhibitor demonstrated high concentrations”. For the same compound, the “Percent reduction in Seizures” value (Sprague-Dawley rats; [6]) was −88.9%, the “Percent reduction in Seizures Severity” value (Sprague-Dawley rats; [6]) was −95.8% and the “Seizures Severity Mean ± SD” value (Sprague-Dawley rats; [3]) was 0.1000 ± 0.3162. For the same compound, the “Seizures Mean ± SD (1 = yes, 0 = no)” value (Sprague-Dawley rats; [4]) was 0.1000 ± 0.3162, the “Reduction in seizure severity / seizure score” value (Sprague-Dawley rats) was 96% reduction in and the “Reduction in seizures / seizure activity” value (Sprague-Dawley rats) was 89% reduction in.

For `CCCCNc1cc(C(=O)N(C)CCCN(C)C)cc(S(N)(=O)=O)c1Oc1ccccc1` [NTP-2026, N-(3-(Dimethylamino)propyl)-N-methyl 3-Aminosulfonyl-5-N-butylamino-4-phenoxybenzamide], the “Solubility issues at the highest dose tested” value [2] was “Significant solubility issues” and the “Reversal of tactile hypersensitivity” value (Male CD-1 mice) was “dose-dependent reversal of tactile hypersensitivity; also recorded: Dose-dependent, significant reversal of”.
